Here are results for 1 substance from US20240082296A1, “TREATMENT OF MUSCLE ATROPHY USING DEXTRAN SULFATE” (TX MEDIC AB, priority 2020, published 2024).

Assay [1] deals with human patients suffering from ALS. The assay can be described thus: serum lactate in ALS patients before and after dextran sulfate (Example 1). Format: in vivo. Conditions: 2 mg/kg s.c. once a week; for serum lactate levels: week 0: 1.78±0.59. The source says:
Using a longitudinal design, this study was aimed to determine the changes of selected serum metabolites in ALS patients before dextran sulfate administration and after different times following the beginning of the treatment. Changes in the measured metabolites indicated the biochemical response of the patient to dextran sulfate that is underpinning potential disease modification and the mechanisms of action of the drug in this ALS patient population.
(§1) Dextran sulfate (Tikomed AB, Viken, Sweden, WO 2016/076780) was administered at 2 mg/kg by […] subcutaneous injection once a week for ten weeks to 8 human patients suffering from ALS.
Peripheral venous blood samples were collected from patients before (week 0) and after dextran sulfate administration (week 5 and week 10) after at least 15 minutes of complete rest, using the standard tourniquet procedure, from the antecubital vein into a single VACUETTE® polypropylene tube containing serum separator and clot activator (Greiner-Bio One GmbH, Kremsmunster, Austria). After 30 mins at room temperature (20-25° C.), blood withdrawals were centrifuged at 1,890×g for 10 min to get serum aliquots.
A serum aliquot of 500 μl was supplemented with 1 ml of HPLC-grade acetonitrile, vortexed for 60 secs, centrifuged at the maximum speed in a top-bench centrifuge to precipitate proteins. Supernatants were washed with large volumes of HPLC-grade chloroform to remove organic solvent, centrifuged and the upper aqueous phases were transferred to different tubes, clearly labeled to identify the sample and stored at −80° C. until analyzed to determine different water-soluble compounds.

Assay [2] shares this test system. Briefly: ALSAQ-40 ADL and PM sub-scores in ALS patients (Example 1). It is filed as in vivo. How it is done:
as §1
ALSAQ-40 was assessed pre-treatment and weekly thereafter for the 10 treatment weeks and for the visits at the follow-up period.
The ALSAQ-40 sub-scores entitled ‘Activities of Daily Living/Independence’ (ADL) and ‘Physical Mobility’ (PM) reflect the patients' view of their level of physical activity and independence. A falling score reflects improved physical activity.

In the case of dextran sulfate, the “increase of serum lactate levels” value is reported as 29.8% in assay [1] (after 5 weeks vs week 0) and 70% in assay [1] (after 10 weeks vs week 0). Further, the serum lactate levels in assay [1] (after 5 weeks, p<0.01) was 2.31 ± 1.02 mM; in assay [1] (after 10 weeks), 3.02 ± 1.59 mM. Moreover, the “decline of ALSAQ-40 ADL sub-score” value in assay [2] (after 10 weeks of treatment) turned out to be 18.6%. The “decline of ALSAQ-40 PM sub-score” value in assay [2] (after 10 weeks of treatment) came out at 16%. Moreover, the “ALSAQ-40 PM sub-score” value in assay [2] (after 10 weeks, pre-treatment 27.2±22.2) was determined as 22.7±20.2. For the same substance, the “ALSAQ-40 ADL sub-score” value in assay [2] (after 10 weeks, pre-treatment 58.9±21.4, p<0.05, falling score = improved) is on record as 44.4±24.7.
